ChEMBL document CHEMBL5726493, “Compositions and methods of modulating short-chain dehydrogenase activity” (2017)

Biological target: T1, 15-hydroxyprostaglandin dehydrogenase [NAD(+)] (Homo sapiens, UniProt P15428)
T1 sequence (P15428 whole entry): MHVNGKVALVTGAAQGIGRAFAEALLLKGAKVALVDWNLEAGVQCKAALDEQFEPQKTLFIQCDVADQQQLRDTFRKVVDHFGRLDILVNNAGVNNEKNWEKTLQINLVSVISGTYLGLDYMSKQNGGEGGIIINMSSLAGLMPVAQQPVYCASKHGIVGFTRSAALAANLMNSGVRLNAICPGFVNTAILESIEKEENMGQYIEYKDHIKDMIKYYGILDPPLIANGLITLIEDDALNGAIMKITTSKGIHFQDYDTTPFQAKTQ
Assay: In Vitro Assay: Each compound for inhibiting enzymatic activity of recombinant 15-PGDH in an in vitro assay.

IC50 [nM]	Compound
5.7	CCCC[S+]([O-])c1sc2nc(-c3nccs3)cc(-c3ccc(CN(C)C)cc3)c2c1N (configuration not stated)
19.3	CCCC[S+]([O-])c1sc2nc(-c3nccs3)cc(-c3cccc(C(=O)NCCN(C)C)c3)c2c1N (configuration not stated)
36.4	CCCC[S+]([O-])c1sc2nc(-c3nccs3)cc(-c3cccc(C(=O)N4CCN(C)CC4)c3)c2c1N (configuration not stated)
8.53	CCCC[S+]([O-])c1sc2nc(-c3nccs3)cc(-c3ccc(OCC(=O)OC)cc3)c2c1N (configuration not stated)
2.71	CCCC[S+]([O-])c1sc2nc(-c3nccs3)cc(-c3ccc(OCC(=O)O)cc3)c2c1N (configuration not stated)
2.5	C=CCNC(=O)c1cccc(-c2cc(-c3nccs3)nc3sc([S+]([O-])CCCC)c(N)c23)c1 (configuration not stated)
20.2	CCCC[S+]([O-])c1sc2nc(-c3nccs3)cc(-c3cccc(C(=O)O)c3)c2c1N (configuration not stated)
